The source of these data is PMC11099041, “Tissue distribution and retention drives efficacy of rapidly clearing VHL-based PROTACs” (Communications Medicine, 2024).

For this data set the following is noted: rat, in vivo, iv, 4 mg/kg. The source says: Male Sprague Dawley rats, intact or bile-cannulated, were from Envigo RMS, Inc. The animals were acclimated to study conditions for five days prior to dose administration. During acclimation, animals were individually housed in suspended, stainless steel, wire-mesh cages. During the test period, animals were placed in Nalgene cages designed for the collection of urine, feces, and bile. Certified Rodent Diet #2016C or 2016CM (Envigo RMS, Inc.) were provided ad libitum. Water was provided fresh daily. Environmental controls for the animal room were set to maintain a temperature of 20-26 °C, a relative humidity of 50 ± 20%, and a 12-hour light/12-hour dark cycle. […] The vehicle for the IV dose was 20% 2-hydroxypropyl-β-cyclodextrin (HP-β-CD) in 50 mM sodium acetate buffer, pH 4.0. […] The supernatant was removed, and the formulation appeared to be a very slight yellow solution. Stability was checked by HPLC analysis of pre- and post-dose aliquots. Animals were not fasted. The actual amount administered was determined by weighing the dose syringe before and after dose administration. The IV dose of 4 mg/kg was administered via a tail vein. For QWBA rats, one animal/time point was prepared for QWBA at approximately 0.25, 1, 4, 8, 24, 48, 168, and 336 hours. […] Blood was maintained on wet ice until being aliquoted for radioanalysis and centrifuged to obtain plasma. […] Each carcass was drained, blotted dry, placed into an appropriately labeled bag, and placed on dry ice or stored at ~-70 °C for at least 2 hours. The frozen carcasses were embedded in chilled carboxymethylcellulose and frozen into blocks. Embedded carcasses were stored at ~-20 °C in preparation for autoradiographic analysis. The samples were stored at -70 °C before analysis. […] All samples were analyzed for radioactivity in PerkinElmer Model 2910TR liquid scintillation counters for at least 5 min or 100,000 counts. Each sample was homogenized or mixed, as applicable, before radioanalysis in duplicate within 10% of the mean value. Scintillation counting data were automatically corrected for counting efficiency using the external standardization technique and an instrument-stored quench curve generated from a series of sealed quenched standards. […] The samples were allowed to sit at least overnight to allow any foaming to dissipate. Ultima Gold XR scintillation cocktail was added, and the samples were shaken and analyzed by liquid scintillation counting (LSC). Plasma was also analyzed by LSC. The urine, bile, cage rinse, and cage wash samples were mixed by shaking, and duplicate weighed aliquots were analyzed directly by LSC. The mean time concentration profile was generated for each group, and an overall AUC was then calculated with these sparse samples of rats and mice. […] The following parameters were estimated whenever possible: C0, Back-extrapolated concentration at time 0; Cmax, Maximum observed concentration; Tmax, Time of maximum observed concentration; AUC0-t, Area under the concentration-time curve from hour 0 to the last measurable concentration, estimated by the linear trapezoidal rule; AUC0-336, Area under the concentration-time curve from hour 0 to hour 336, estimated by the linear trapezoidal rule; DN AUC0-336, Dose normalized AUC0-336, calculated as AUC0-336/dose level; AUC0-∞, Area under the concentration-time curve from hour 0 to infinity (Day 1 only), calculated as follows: AUC0-∞ = AUC0-t + Ct/λz, where Ct is the last measurable concentration and λz is the elimination rate constant; t1/2, Elimination half-life, determined by ln(2)/λz; CL, Clearance, calculated as dose/AUC0-inf; Vd, Volume of distribution based on the terminal phase, calculated as: dose/(λz × AUC0-∞) Nominal doses and sampling times were used. […] Embedded zeros were excluded from kinetic analysis.

With `Cc1ncsc1-c1ccc(C(C)NC(=O)C2CC(O)CN2C(=O)C(c2cc(N3CCC(CN4CCC(OC5CC(Oc6cc(N7C8CCC7CN(c7cc(-[14c]9[14cH][14cH][14cH][14cH][14c]9O)nnc7N)C8)ccn6)C5)CC4)CC3)no2)C(C)C)cc1` (stereo not drawn) [14C-A947], the “AUC0–∞ in plasma and blood” value is ~ 18 µg h/g; the “Cmax of radioactivity in blood” value stood at 1.13 µg/g; the “Cmax of radioactivity in plasma” value amounted to 1.22 µg/g; the “Initial decrease of radioactivity in blood and plasma” value is “greater than 90%”. The “Radioactivity in plasma and blood at 336 hours” value was in the range of 3 to 6 ng/g; the “Terminal clearance (CL)” value was ~ 5.8 mL/min/kg; the “Terminal elimination half-life (t1/2) in plasma and blood” value was in the range of 72 to 75 h; the “Tmax in blood and plasma” value came out at 0.25 h. The “Volume of distribution (Vd)” value amounted to 23.9 L/kg.
